Assay results taken from US9856225B2, “Substituted phenazines as antimicrobial agents” (University of Florida Research Foundation, Incorporated, priority 2013, dated 2018).
Values after ≈ are worked out from the molar mass of the structure shown. Values joined by “and” are separate entries in the source; they are usually repeats but may differ in a detail not shown here. Equal values may be shown once. Read-outs that look alike come from different tables or passages of the source. Marks after values point to notes of the source that are not given here.

How the values were obtained:
S. aureus ATCC 29213 = assay: MIC against S. aureus ATCC 29213; format: cell-based; conditions: Staphylococcus aureus, ATCC29213
Description: (§1) Vancomycin's activity against MRSA-2. Vancomycin was also evaluated against MRSA-2 since vancomycin has been considered to be the drug of last resort against MRSA infections.

MRSA-2 biofilms = assay: Biofilm eradication assay (MBEC); format: cell-based, Staphylococcus aureus; conditions: for Biofilm Eradication MBEC: MRSA-2
Description: Biofilm eradication assays. […] The protocol for the biofilm eradication assays was essentially the same as the protocols reported in Eun et al., J. Am. Chem. Soc., 2012, 134, 11322 and Ceri et al., J. Clin. Microbiol., 1999, 37, 1771. Biofilm eradication assays were essentially biofilm dispersion assays with the addition of a final treatment with fresh media (and incubation at 37° C. for 24 hours) instead of crystal violet staining. This final incubation allowed viable cells within the biofilm to grow. At the end of this final incubation in biofilm eradication assays, microtiter wells void of turbidity represented eradicated biofilms, and the lowest concentration at which no visible growth was observed was referred to as the minimum biofilm eradication concentration (MBEC). Potent biofilm eradicating small molecules are extremely rare (Fletcher et al., Tetrahedron, 2014, 70, 6373; Jennings et al., ChemBioChem, 2014, 15, 2211). For these experiments, MRSA-2 was selected as the model since MRSA-2 is a multidrug-resistant, biofilm-forming clinical isolate of Staphylococcus aureus (Priyaja et al., Cytotechnol., 2014, doi: 10.1007/s10616-014-9765-5).

MRSA-2 = assay: MIC against MRSA-2; format: cell-based; conditions: Staphylococcus aureus, read-out: MIC against MRSA-2
Description: Antibiotic Susceptibility Tests (MIC Assay Protocol). The minimum inhibitory concentration (MIC) for each compound described herein was determined by the broth microdilution method as recommended by the Clinical and Laboratory Standards Institute (CLSI) (Clinical and Laboratory Standards Institute. 2009. Methods for dilution antimicrobial susceptibility tests for bacteria that grow aerobically; approved standard, eighth edition (M7-A8)). In a 96-well plate, eleven two-fold serial dilutions of each compound were made in a final volume of 100 μL Luria Broth (one column served as a blank; see the MIC assay described herein). Each well was inoculated with 10^5 bacterial cells at the initial time of incubation, prepared from a fresh log phase culture (OD600 of 0.5). […] The concentration range tested for each compound during this study was 0.10 to 100 μM. DMSO served as the vehicle and negative control in each microdilution MIC assay. DMSO was serially diluted at the same concentration as the compounds with a top concentration of 1% v/v. Bacterial strains used: Staphylococcus aureus (ATCC 25923), Staphylococcus epidermidis (ATCC 12228) and Pseudomonas aeruginosa (PAO1). […]
as §1

[1] = system: Pseudomonas aeruginosa (PAO1); assay: MIC broth microdilution (CLSI), Luria Broth; format: cell-based; conditions: Table 1, PAO1, read-out: Pseudomonas aeruginosa MIC
Description: (§2) Antibiotic Susceptibility Tests (MIC Assay Protocol). The minimum inhibitory concentration (MIC) for each compound described herein was determined by the broth microdilution method as recommended by the Clinical and Laboratory Standards Institute (CLSI) (Clinical and Laboratory Standards Institute. 2009. Methods for dilution antimicrobial susceptibility tests for bacteria that grow aerobically; approved standard, eighth edition (M7-A8)). In a 96-well plate, eleven two-fold serial dilutions of each compound were made in a final volume of 100 μL Luria Broth (one column served as a blank; see the MIC assay described herein). Each well was inoculated with 10^5 bacterial cells at the initial time of incubation, prepared from a fresh log phase culture (OD600 of 0.5). […] The concentration range tested for each compound during this study was 0.10 to 100 μM. DMSO served as the vehicle and negative control in each microdilution MIC assay. DMSO was serially diluted at the same concentration as the compounds with a top concentration of 1% v/v. Bacterial strains used: Staphylococcus aureus (ATCC 25923), Staphylococcus epidermidis (ATCC 12228) and Pseudomonas aeruginosa (PAO1). Kanamycin was used as a positive control against Staphylococcus aureus and Staphylococcus epidermidis.

[2] = system: Staphylococcus aureus (ATCC 25923); assay: MIC broth microdilution (CLSI), Luria Broth; format: cell-based; conditions: Staphylococcus aureus, ATCC25923, Table 1, ATCC 25923, read-out: Staphylococcus aureus MIC
Description: as §2

Solubility observation = format: physicochemical
Description: 6,9-Dibromophenazine-1-carboxylic acid (18) and methyl-6,9-dibromophenazine-1-carboxylate (35). 2-((2,5-Dibromophenyl)amino)-3-nitrobenzoic acid (497 mg, 1.16 mmol) was dissolved in 19 mL 2 N aqueous sodium hydroxide and treated with sodium borohydride (131 mg, 3.47 mmol). The resulting reaction mixture was then refluxed for 1.5 hours. After this time, the reaction was made acidic with 2 N aqueous hydrochloric acid, and the resulting precipitate was filtered. The filter cake was then washed with hot chloroform to afford 143 mg (32% yield) of 6,9-dibromophenazine-1-carboxylic acid 18 as a yellow-green solid. […] A small portion of this material was converted to methyl ester 35 for characterization purposes using the following procedure. To a stirred suspension of 6,9-dibromophenazine-1-carboxylic acid (3.7 mg, 0.0097 mmol) in 0.4 mL dimethylformamide was sequentially added potassium carbonate (22 mg, 0.16 mmol) and one drop of iodomethane. The reaction was allowed to stir overnight at room temperature. The reaction was then transferred to a separatory funnel and partitioned between ethyl acetate and water. The organic layer was then washed with brine and collected. […] The crude material was taken up in chloroform and passed over a silica plug to furnish 3.8 mg (quantitative yield) of methyl-6,9-dibromophenazine-1-carboxylate 35 as a yellow solid.

[3] = Stability of DMSO stock solutions; format: physicochemical
Description: Compound storage. Solid stocks of the compounds described herein were stored at −80° C. in vials sealed with PARAFILM. Between 2.0 and 4.5 milligrams of each compound was weighed out, and a 10 mM DMSO stock solution of each compound were prepared. DMSO stock solutions were stored at room temperature in the dark (e.g., wrapped in aluminum foil). At this concentration, a few compounds required gentle heating to completely solubilize. DMSO stock solutions were not subjected to any freeze-thaw cycles to prevent compound breakdown. The compounds were stable in DMSO for several weeks under these mild storage conditions, with the exception of pyocyanin. Pyocyanin is unstable in DMSO at room temperature after one day. […] DMSO stock solutions of about 2 milligrams of pyocyanin were made fresh each day. The hydrolysis stability of select compounds was also tested, e.g., by subjecting these compounds to conditions mimicking the biofilm assays described herein. In one set of exemplary experiments, 3.2 to 4.5 mgs of each of compounds 18a, 12a, 23a, and 21 were treated with 1 mL of sterile water to form a mixture. […] After 24 hours, each of the mixtures was extracted with dichloromethane and evaluated, using TLC and NMR, for hydrolysis of each of compounds 18a, 12a, 23a, and 21 to compound 11.

[4] = system: Staphylococcus epidermidis (ATCC 12228); assay: MIC broth microdilution (CLSI), Luria Broth; format: cell-based; conditions: ATCC12228, Table 1, ATCC 12228, read-out: Staphylococcus epidermidis MIC
Description: as §2

solubility (in words) (Solubility observation)	SMILES	MIC (S. aureus ATCC 29213)	Biofilm Eradication MBEC (MRSA-2 biofilms)	Biofilm Eradication MBEC (MRSA-2 biofilms; listed as vancomycin)	MBEC:MIC ratio (MRSA-2 biofilms; MRSA-2 biofilm vs planktonic)	MIC (MRSA-2)	MIC [1]	MIC ([2]; range tested 0.10 to 100 μM)	MIC [2]	stability in DMSO ([3]; 10 mM DMSO stock, room temperature, dark)	decomposition in d6-DMSO (NMR) ([3]; after 8 hours at room temperature)	MIC [4]
	CN[C@H](CC(C)C)C(=O)N[C@H]1C(=O)N[C@@H](CC(N)=O)C(=O)N[C@H]2C(=O)N[C@H]3C(=O)N[C@H](C(=O)N[C@H](C(=O)O)c4cc(O)cc(O)c4-c4cc3ccc4O)[C@H](O)c3ccc(c(Cl)c3)Oc3cc2cc(c3O[C@@H]2O[C@H](CO)[C@@H](O)[C@H](O)[C@H]2O[C@H]2C[C@](C)(N)[C@H](O)[C@H](C)O2)Oc2ccc(cc2Cl)[C@H]1O [Vancomycin, reference compound]	0.39 to 0.78 µM (≈ 0.565 to 1.13 µg/mL)	>2,000^d μM	> 2,000 μM	> 2,564	0.78 µM (≈ 1.13 µg/mL)						
extremely low solubility	O=C(O)c1cccc2nc3c(Br)ccc(Br)c3nc12 [Compound 18, 6,9-Dibromophenazine-1-carboxylic acid]						> 100 µM	> 100 µM	> 38.3 µg/mL			
	Cn1c2cccc(=O)c-2nc2ccccc21 [Compound 1, Pyocyanin, reference compound]						> 100 µM	50 µM	10.6 µg/mL	unstable	significant decomposition	50 µM and 10.6 µg/mL
	O=C(O)c1cccc2nc3ccccc3nc12 [Compound 3, Phenazine-1-carboxylic acid, reference compound]						> 100 µM	> 100 µM	> 22.5 µg/mL			> 100 µM and > 22.5 µg/mL
	NC(=O)c1cccc2nc3ccccc3nc12 [Compound 4, Phenazine-1-carboxamide, reference compound]						> 100 µM	> 100 µM	> 22.4 µg/mL			> 100 µM and > 22.4 µg/mL
